# Legend:
# Test in all cases: Bliss excess, mean over the matrix (fraction); higher = more synergy
# [1] = test system: KARPAS-231 (B-Cell Non-Hodgkin's Lymphoma)
# Outline: (§1)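 After 24 hours at 37°C and 5% CO2 in 1536-well plates, cells in DMEM/F12 or RPMI plus 10% FBS received two-drug dose matrices for 72 hours. Viability came from CellTiter-Glo 2.0 luminescence and was scaled as inhibition, anchored at 0 by vehicle wells and at 1 by blank wells. Combination Emax is taken as the second-highest inhibition in the matrix, and Bliss excess as the observed combination effect less EA + EB − EA·EB, with EA and EB the single-agent effects.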
# [2] = test system: UMC-11 (Other Solid Carcinomas)
# Outline: as §1
# [3] = test system: HARA (Squamous Cell Lung Carcinoma)
# Outline: as §1
# [4] = test system: RT-112 (Bladder Carcinoma)
# Outline: as §1
# [5] = test system: SUP-T1 (T-Lymphoblastic Leukemia)
# Outline: as §1
# [6] = test system: LB771-HNC (Head and Neck Carcinoma)
# Outline: as §1
# [7] = test system: Hs-633T (Other Solid Carcinomas)
# Outline: as §1
# [8] = test system: 639-V (Bladder Carcinoma)
# Outline: as §1
# [9] = test system: NCI-H747 (Colorectal Carcinoma)
# Outline: as §1
# [10] = test system: NCI-H69 (Small Cell Lung Carcinoma)
# Outline: as §1
# [11] = test system: HO-1-u-1 (Oral Cavity Carcinoma)
# Outline: as §1
# [12] = test system: OVCAR-8 (Ovarian Carcinoma)
# Outline: as §1
# [13] = test system: LoVo (Colorectal Carcinoma)
# Outline: as §1
# [14] = test system: TE-4 (Esophageal Squamous Cell Carcinoma)
# Outline: as §1
# HMV-II (Melanoma) = test system: HMV-II (Melanoma)
# Outline: as §1
# [15] = test system: MDA-MB-468 (Breast Carcinoma)
# Outline: as §1
# [16] = test system: EN (Endometrial Carcinoma)
# Outline: as §1
# NB14 (Neuroblastoma) = test system: NB14 (Neuroblastoma)
# Outline: as §1
# [17] = test system: PCI-30 (Head and Neck Carcinoma)
# Outline: as §1
# [18] = test system: CAPAN-1 (Pancreatic Carcinoma)
# Outline: as §1
Compound,Bliss excess [1],Bliss excess [2],Bliss excess [3],Bliss excess [4],Bliss excess [5],Bliss excess [6],Bliss excess [7],Bliss excess [8],Bliss excess [9],Bliss excess [10],Bliss excess [11],Bliss excess [12],Bliss excess [13],Bliss excess [14],Bliss excess (HMV-II (Melanoma)),Bliss excess [15],Bliss excess [16],Bliss excess (NB14 (Neuroblastoma)),Bliss excess [17],Bliss excess [18]
"Cc1cc2ncnn2cc1Nc1ncc2c(n1)n(C1CCOCC1)c(=O)n2C [AZD7648] + CN(C)CCCOc1ccc(-c2ccc3ncc4c(c3c2)n(C2CCOCC2)c(=O)n4C)cn1 [AZD0156] (first compound max 10 µM, 7x7, partner max 1 µM)",0.0157,0.0196,0.0352,0.0229,-0.0241,0.0059,0.0271,0.0192,0.0253,-0.044,-0.0542,0.0245,-0.0469,0.0139,-0.0169,0.0032,-0.0396,0.0053,-0.0411,-0.0201
"C[C@@H]1COCCN1c1cc(C2([S@](C)(=N)=O)CC2)nc(-c2ccnc3[nH]ccc23)n1 [AZD6738] + O=C(c1cc(Cc2n[nH]c(=O)c3ccccc23)ccc1F)N1CCN(C(=O)C2CC2)CC1 [Olaparib] (first compound max 10 µM, 7x7, partner max 10 µM)",-0.0708,0.0266,0.033,-0.0643,-0.0289,0.0337,0.0221,0.0684,0.0096,-0.0283,0.0528,0.0495,-0.0084,0.0082,-0.0296,-0.0227,-0.0479,-0.0072,-0.052,-0.0125
"C=CCn1c(=O)c2cnc(Nc3ccc(N4CCN(C)CC4)cc3)nc2n1-c1cccc(C(C)(C)O)n1 [AZD1775] + C[C@@H]1COCCN1C2=NC(=NC(=C2)C3(CC3)[S@](=N)(=O)C)C4=C5C=CNC5=NC=C4 [AZD6738] (first compound max 1 µM, partner max 10 µM)",0.0545,-0.0454,-0.0239,0.0578,-0.0352,-0.0057,0.0309,0.0455,-0.0002,0.0962,0.0263,0.0818,-0.0212,0.0485,-0.0327,0.0344,,0.0462,0.0406,-0.0951
"Cc1c2c(nn1C)CSCc1cc(n(C)n1)CSc1cc(c3ccccc3c1)OCCCc1c(C(=O)O)n(C)c3c-2c(Cl)ccc13 [AZD5991] + CCN(CCO)CCCOc1ccc2c(Nc3cc(CC(=O)Nc4cccc(F)c4)[nH]n3)ncnc2c1 [AZD2811] (first compound max 1 µM, 7x7, partner max 1 µM)",-0.007,-0.0037,0.0761,0.125,0.0561,0.0432,-0.0106,0.0649,-0.0133,0.0092,0.0569,0.0412,-0.0257,0.063,,-0.0025,0.0145,0.0085,0.0256,-0.0303
"COc1nnc2ccc(N3CCC(c4ccc(OCCN5CCN(C)C(=O)[C@H]5C)cc4)CC3)nn12 [AZD5153] + C[C@@H]1COCCN1C2=NC(=NC(=C2)C3(CC3)[S@](=N)(=O)C)C4=C5C=CNC5=NC=C4 [AZD6738] (first compound max 1 µM, 7x7, partner max 10 µM)",-0.0609,0.0169,-0.0012,0.0298,-0.0445,0.0467,0.0037,0.0933,0.0079,0.0358,-0.0146,0.0047,0.0603,0.0983,0.0169,,0.0191,-0.043,-0.014,-0.022
"Cn1cnc2c(F)c(Nc3ccc(Br)cc3Cl)c(C(=O)NOCCO)cc21 [Selumetinib] + CC(C)n1c(=O)n(C)c2cnc3cc(F)c(-c4ccc(OCCCN5CCCCC5)nc4)cc3c21 [AZD1390] (first compound max 10 µM, 7x7, partner max 0.3 µM)",-0.0101,-0.0422,-0.0159,-0.0217,-0.0481,-0.067,0.0303,-0.0783,-0.0334,-0.0305,-0.0387,-0.0254,-0.0325,-0.0461,-0.0262,,-0.0086,0.0021,-0.0208,-0.0537
"COc1nnc2ccc(N3CCC(c4ccc(OCCN5CCN(C)C(=O)[C@H]5C)cc4)CC3)nn12 [AZD5153] + CC1(C)CCC(CN2CCN(c3ccc(C(=O)NS(=O)(=O)c4ccc(NCC5CCOCC5)c([N+](=O)[O-])c4)c(Oc4cnc5[nH]ccc5c4)c3)CC2)=C(c2ccc(Cl)cc2)C1 [Venetoclax] (first compound max 1 µM, 7x7, partner max 1 µM)",-0.135,0.0234,-0.0617,-0.0479,-0.0766,-0.0704,-0.0373,-0.0962,-0.0522,-0.0445,-0.0352,0.0035,-0.0378,-0.0291,-0.0695,,-0.0567,-0.0109,-0.0894,-0.0874

# — the supplement of paper PMC11061612
